According to PubChem BioAssay (NCI):
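Cultured in 96-well plates, cells were exposed to test compound for 48 hours across five concentrations. TGI: total growth inhibition.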

Key:
Test in all cases: NCI-60 cell line screen, 48 h
[1] = test system: CAKI-1 renal
[2] = test system: HOP-92 NSCLC
[3] = test system: NCI/ADR-RES ovarian
[4] = test system: OVCAR-3 ovarian
[5] = test system: OVCAR-4 ovarian
[6] = test system: RXF 393 renal
[7] = test system: SF-295 CNS
[8] = test system: SK-MEL-2 melanoma
[9] = test system: SK-MEL-28 melanoma
[10] = test system: SNB-19 CNS

Structure (SMILES) | TGI [1] [µM] | TGI [2] [µM] | TGI [3] [µM] | TGI [4] [µM] | TGI [5] [µM] | TGI [6] [µM] | TGI [7] [µM] | TGI [8] [µM] | TGI [9] [µM] | TGI [10] [µM]
COc1cc(/C=C/C(=N\NC(=S)NN)c2sc(NNC(C)=O)nc2C)ccc1O | > 100 | > 100 | > 100 | > 100 | > 100 | > 100 | > 100 | > 100 | > 100 | > 100
O=C(c1ccccc1O)c1cc(-c2ncc3c(=O)c4ccccc4oc3n2)c(-c2ccccc2O)[nH]c1=O | > 33.3 | 52 | > 87.6 | 62.4 | 83.5 | 93.4 | 22.7 | 46.3 | 65.3 | > 87.5
O=C(c1ccccc1)c1c(C(F)(F)F)n([O-])c2cc(F)c(F)cc2[n+]1=O | 1.76 | 0.324 | 1.63 | 1.16 | > 100 | 2.22 | 5.66 | 4.44 | > 100 | 10.8
COc1cccc([C@@H]2CC(=O)c3cc4c(cc3N2)OCO4)c1 | > 100 | > 100 | > 100 | > 100 | > 100 | > 100 | > 100 | > 100 | > 100 | > 100
